Laboratory results from ChEMBL document CHEMBL3727364, “Resorcinol n-aryl amide compounds, for use as pyruvate dehydrogenase kinase inhibitors” (2015).
pIC50: −log10 of the molar value.

Target: [Pyruvate dehydrogenase (acetyl-transferring)] kinase isozyme 1, mitochondrial (Homo sapiens, UniProt Q15118)
Test: Binding affinity to pyruvate dehydrogenase kinase 1 (unknown origin) incubated for 90 mins by VER-00160364 probe based fluorescence polarization assay

Chain of [Pyruvate dehydrogenase (acetyl-transferring)] kinase isozyme 1, mitochondrial (Q15118 whole entry): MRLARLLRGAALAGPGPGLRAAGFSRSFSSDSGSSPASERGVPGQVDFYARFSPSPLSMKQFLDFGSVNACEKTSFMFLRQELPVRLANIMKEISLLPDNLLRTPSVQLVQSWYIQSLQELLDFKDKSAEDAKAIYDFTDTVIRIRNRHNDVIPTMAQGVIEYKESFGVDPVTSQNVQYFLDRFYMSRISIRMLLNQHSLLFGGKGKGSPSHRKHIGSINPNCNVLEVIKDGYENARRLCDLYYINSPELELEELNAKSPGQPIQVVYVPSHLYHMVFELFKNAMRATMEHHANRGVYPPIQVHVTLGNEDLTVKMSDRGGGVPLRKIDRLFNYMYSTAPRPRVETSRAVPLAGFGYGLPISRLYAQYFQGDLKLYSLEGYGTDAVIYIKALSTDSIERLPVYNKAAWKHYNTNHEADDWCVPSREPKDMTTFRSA

pIC50 | SMILES
7.00 | Cc1ccc(CN(C(=O)c2cc(Cl)c(O)cc2O)c2ccc(C(=O)N(C)C)cc2)cc1
8.00 | CN(C)C(=O)c1ccc(N(Cc2cccnc2)C(=O)c2cc(Cl)c(O)cc2O)cc1
8.00 | O=C(c1ccc(O)cc1O)N(Cc1ccccc1)c1ccc(-c2nc(Cl)c3c(n2)CCSC3)cc1
8.00 | COc1ccc(CN(C)C(=O)c2ccc(N(Cc3cccnc3)C(=O)c3cc(Cl)c(O)cc3O)cc2)cc1
7.00 | CN(C)C(=O)c1ccc(N(Cc2cccc(O)c2)C(=O)c2cc(Cl)c(O)cc2O)cc1
8.00 | Cc1cnc(Cl)nc1-c1ccc(N(Cc2ccc(CN3CCCC3)cc2)C(=O)c2ccc(O)cc2O)cc1
6.00 | Cc1c(-c2ccc(N(Cc3ccccc3)C(=O)c3ccc(O)cc3O)cc2)ccc2c1NC(=O)C2=O
7.00 | CN(Cc1cccs1)C(=O)c1ccc(N(Cc2cccnc2)C(=O)c2ccc(O)cc2O)cc1
6.00 | N#Cc1cccc(-c2ccc(N(Cc3cccnc3)C(=O)c3ccc(O)cc3O)cc2)c1
7.00 | O=C(c1ccc(O)cc1O)N(Cc1cccnc1)c1ccc(-c2nncc3ccccc23)cc1
8.00 | Cc1cc(S(=O)(=O)N2CC(F)(F)C2)cnc1-c1ccc(N(Cc2cccnc2)C(=O)c2ccc(O)cc2O)cc1
8.00 | Cc1cc(S(=O)(=O)NCc2cccnc2)cnc1-c1ccc(N(Cc2ccsc2)C(=O)c2ccc(O)cc2O)cc1
8.00 | Cc1ccc(CN(C(=O)c2ccc(O)cc2O)c2ccc(-c3nc(C)ncc3C)cc2)cc1
8.00 | CC(=O)NCCNS(=O)(=O)c1cnc(-c2ccc(N(Cc3ccccc3)C(=O)c3ccc(O)cc3O)cc2)c(C)c1
8.00 | COCCN(C)S(=O)(=O)c1cnc(-c2ccc(N(Cc3cccnc3)C(=O)c3ccc(O)cc3O)cc2)c(C)c1
6.00 | Cc1cc2ccccc2nc1-c1ccc(N(Cc2ccccc2)C(=O)c2cc(Cl)c(O)cc2O)cc1
6.00 | Cc1cnc(-c2cccnc2)nc1-c1ccc(N(Cc2ccccc2)C(=O)c2ccc(O)cc2O)cc1
5.00 | O=C(Nc1ccc(N(Cc2ccccc2)C(=O)c2ccc(O)cc2O)cc1)c1cc2ccccc2s1

pIC50 | SMILES
6.00 | Cc1nc(C(F)(F)F)nc(-c2ccc(N(Cc3ccccc3)C(=O)c3ccc(O)cc3O)cc2)c1C
8.00 | Cc1cc(S(=O)(=O)NCCCC(N)=O)cnc1-c1ccc(N(Cc2cccnc2)C(=O)c2ccc(O)cc2O)cc1
6.00 | Cc1nccnc1-c1ccc(N(Cc2ccccc2)C(=O)c2ccc(O)cc2O)cc1
7.00 | O=C(NCc1ccc(Cl)cc1)c1ccc(N(Cc2cccnc2)C(=O)c2ccc(O)cc2O)cc1
8.00 | Cc1ccc(CN(C(=O)c2ccc(O)cc2O)c2ccc(-c3nc4ccccc4cc3C)cc2)cc1
6.00 | CCc1cc2ccccc2nc1-c1ccc(N(Cc2ccsc2)C(=O)c2ccc(O)cc2O)cc1
6.00 | O=C(c1ccc(O)cc1O)N(Cc1ccsc1)c1ccc(-c2ccnc3ccccc23)cc1
7.00 | Cc1cc(C(=O)N(Cc2ccccc2)c2ccc(-c3nc(Cl)ncc3C)cc2)c(O)cc1O
8.00 | CC(=O)N1CCN(S(=O)(=O)c2cnc(-c3ccc(N(Cc4ccsc4)C(=O)c4ccc(O)cc4O)cc3)c(C)c2)CC1
6.00 | O=C(c1ccc(O)cc1O)N(Cc1cccnc1)c1ccc(-c2ccccc2Cl)cc1
7.00 | Cc1cnc(C)c(-c2ccc(N(Cc3ccccc3)C(=O)c3ccc(O)cc3O)cc2)n1
8.00 | CN(Cc1ccc2nccnc2c1)C(=O)c1ccc(N(Cc2cccnc2)C(=O)c2ccc(O)cc2O)cc1
7.00 | Cc1cn(-c2ccc(-c3ccc(N(Cc4cccnc4)C(=O)c4ccc(O)cc4O)cc3)nn2)cn1
7.00 | COc1cc2cc(Cl)ccc2nc1-c1ccc(N(Cc2ccsc2)C(=O)c2ccc(O)cc2O)cc1
7.00 | O=C(c1ccc(O)cc1O)N(Cc1cccnc1)c1ccc(-c2nc3ccccc3cc2CO)cc1
7.00 | Cc1nccnc1-c1ccc(N(Cc2ccsc2)C(=O)c2ccc(O)cc2O)cc1
6.00 | Cc1cc2ccccc2nc1-c1ccc(N(Cc2ccc(CN3CCOCC3)cc2)C(=O)c2ccc(O)cc2O)cc1
6.00 | Cc1cc2ccccc2nc1-c1ccc(N(Cc2cc(F)cc(F)c2)C(=O)c2ccc(O)cc2O)cc1
